Experimental data: patent publication US4904593A (priority 1986, dated 1990)
Like-named read-outs stand apart in the source and are kept apart here.

Legend:
purified esterase [1] = assay: Hydrolysis activity of the esterase to substrates, pH-stat (Example 6, Table 1); assay type: biochemical, Bacillus sp. DC-1; details: 100 mM Tris-HCl pH 9.0, emulsified with 0.2% polyvinyl alcohol, ethyl butyrate = 100
Method: (§1) Also, the hydrolysis activities of the present esterase to choline ester, cholesterol ester, and thiol ester were determined.
(§2) In Table 1, the hydrolysis activity is expressed in relative activity (%) based on the hydrolysis activity of the present esterase to ethyl butyrate taken as 100. Each substrate was used after it was emulsified with 0.2% polyvinyl alcohol. In Table 2, hydrolysis activities to choline ester and cholesterol ester were observed by the use of the Cholinesterase B-test (Wako) and Free-Cholesterol B-test (Wako), respectively, and hydrolysis activity to thiol ester was based on increase in absorbance at 412 nm with a spectrophotometer in which glutathione, a standard substance, and 5,5'-dithiobis(2-nitrobenzoic acid) (DTNB) were employed. The activity is expressed in mole numbers of choline, cholesterol, and CoA to be liberated per minute.

purified esterase [2] = assay: Hydrolysis activity to thiol ester, DTNB absorbance at 412 nm (Table 2); assay type: biochemical, Bacillus sp. DC-1; details: for Activity: substrate 50 μM, CoA liberated per minute; for Substrate specificity (esterase active or not): summary of properties, thiol esters
Method: as §1, §2

purified esterase [3] = assay: Hydrolysis activity to cholesterol ester, Free-Cholesterol B-test (Table 2); assay type: biochemical, Bacillus sp. DC-1; details: substrate 1,300 μM; cholesterol liberated per minute
Method: as §1, §2

purified esterase [4] = assay type: biochemical, Bacillus sp. DC-1
[5] = system: esterase from Pseudomonas aeruginosa; details: cited from earlier work

With `CCCCCCCCCCCCCCCC(=O)OCC(CO)OC(=O)CCCCCCCCCCCCCCC` (centres unmarked) [1,2-dipalmitoyl glycerol] the “Relative activity (%)” value (purified esterase [1]; substrate 5 mM) was 0.2%.
In the case of `CCCCCCCCCCCCCCCC(=O)OCC(O)COC(=O)CCCCCCCCCCCCCCC` [1,3-dipalmitoyl glycerol], the “Relative activity (%)” value (purified esterase [1]; substrate 2 mM) is reported as 0%.
For `CCCCCCCCCCCCCCCC(=O)OCC(O)CO` (centres unmarked) [1-palmitoyl glycerol], the “Relative activity (%)” value (purified esterase [1]; substrate 5 mM) was 3.0%.
With `CC(=O)SCCNC(=O)CCNC(=O)[C@H](O)C(C)(C)COP(=O)(O)OP(=O)(O)OC[C@H]1O[C@@H](n2cnc3c(N)ncnc32)[C@H](O)[C@@H]1OP(=O)(O)O` [Acetyl CoA] the “Activity” value (purified esterase [2]) was 0 nmol/min and the “Substrate specificity (esterase active or not)” value (purified esterase [2]) was “not”.
For `CC(=O)O[C@H]1CC[C@@]2(C)C(=CC[C@H]3[C@@H]4CC[C@H]([C@H](C)CCCC(C)C)[C@@]4(C)CC[C@@H]32)C1` [Cholesterol acetate], the “Activity” value (purified esterase [3]) was 0 nmol/min.
With `CCCCC/C=C\C/C=C\CCCCCCCC(=O)O[C@H]1CC[C@@]2(C)C(=CC[C@H]3[C@@H]4CC[C@H]([C@H](C)CCCC(C)C)[C@@]4(C)CC[C@@H]32)C1` [Cholesterol linolate] the “Activity” value (purified esterase [3]) was 0 nmol/min.
For `CCCC(=O)OCC` [Ethyl butyrate], the “Relative activity (%)” value (purified esterase [1]; substrate 20 mM) was 100.0%.
In the case of `CCCCCCCCCCCCCCCC(=O)OC(C)C` [Isopropyl palmitate], the “Relative activity (%)” value (purified esterase [1]; substrate 20 mM) is reported as 1.7%.
With `O=S(=O)(F)Cc1ccccc1` [PMSF, phenylmethylsulfonylfluoride] the “Inactivation of the esterase” value (purified esterase [4]) was “Completely inactivated” and the “Remaining activity(%)” value (purified esterase [4]; 80 µM) was 1.5%.
In the case of `CCCCCCCCCCCCCCCC(=O)SCCNC(=O)CCNC(=O)[C@H](O)C(C)(C)COP(=O)(O)OP(=O)(O)OC[C@H]1O[C@@H](n2cnc3c(N)ncnc32)[C@H](O)[C@@H]1OP(=O)(O)O` [Palmitoyl CoA], the “Activity” value (purified esterase [2]) is reported as 5.4 nmol/min and the “Substrate specificity (esterase active or not)” value (purified esterase [2]) is reported as “Active”.
In the case of `C[C@H](CCC(=O)O)[C@H]1CC[C@H]2[C@@H]3CC[C@@H]4C[C@H](O)CC[C@]4(C)[C@H]3C[C@H](O)[C@]12C` [Sodium deoxycholate], the “Remaining activity(%)” value (purified esterase [4]) is reported as 76.2% and the Decrease of activity (purified esterase [4]; purified esterase, pH 9, 10 min, 1000 µM) is reported as “about 25%”.
In the case of `CCCCCCCCCCCCOS(=O)(=O)[O-].[Na+]` [Sodium lauryl sulfate], the “Remaining activity(%)” value (purified esterase [4]) is given as 32.2%, the “Decrease of activity (inactivation)” value (purified esterase [4]; purified esterase, pH 9, 10 min, 5000 µM) is given as “about 70%” and the “Inactivation of the esterase from Pseudomonas aeruginosa” value [5] is given as “not inactivated”.
In the case of `CC(=O)OCC(COC(C)=O)OC(C)=O` [Triacetin], the “Relative activity (%)” value (purified esterase [1]; substrate 20 mM) is reported as 14.1%.
In the case of `CCCC(=O)OCC(COC(=O)CCC)OC(=O)CCC` [Tributylin], the “Relative activity (%)” value (purified esterase [1]; substrate 20 mM) is reported as 56.6%.
With `CCCCCCCCCCCCCCCC(=O)OCC(COC(=O)CCCCCCCCCCCCCCC)OC(=O)CCCCCCCCCCCCCCC` [Tripalmitin] the “Relative activity (%)” value (purified esterase [1]; substrate 6 mM) was 1.1%.
With Tritonx-100 the “Remaining activity(%)” value (purified esterase [4]) was 101.5%.
With Tween-80 the “Remaining activity(%)” value (purified esterase [4]) was 130.8%.
